Measured values published in the supplement of paper PMC11208160.

Experiment: recombinant UMI read abundance after kanamycin selection (control-corrected) (log10(CPM+1)); higher = more efficient recombination; extreme values may be limits of the assay; sequences stand for … in AGTGCAGAGAAAATCGGCCAGTTTTCTCTGCCTGCAGTCCGCATGCCGTGGGACCCCTTGGGTTCTAACCTGTTGCCTAGATTTATGCAGCGGACTGCCTTTCTCCCAAAGTGATAAACCGG…AGGTTGGTTTCACT; site = the 11-nt donor
Method in brief: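 The measure is log10(CPM+1) for recombinant UMIs. These were PCR-amplified across the donor–target junction and sequenced after Escherichia coli carrying a donor and donor-binding-loop pair library and a target plasmid with T7-inducible IS621 bridge recombinase was plated on IPTG (0.07 mM) plus kanamycin or unselected. CPM were averaged over two replicates and scaled by control-derived factors.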
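Also: IS621 bridge recombinase in Escherichia coli cells against a fixed T5 target plasmid.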

Sequence: TAGAATACATGGACCGGTTTTCCCGGTAATCCGTATTTGCA (site TAGAATACTTA)
- recombinant UMI read abundance (log10): 0

Sequence: TAGAATACATGGACCGGTTTTCCCGGTAATCCGTATTTGCA (site TAGAATACTTC)
- recombinant UMI read abundance (log10): 0.0185

Sequence: TAGAATACATGGACCGGTTTTCCCGGTAATCCGTATTTGCA (site TAGAATACTTG)
- recombinant UMI read abundance (log10): 2.18

Sequence: TAGAATACATGGACCGGTTTTCCCGGTAATCCGTATTTGCA (site TAGAATACTTT)
- recombinant UMI read abundance (log10): 0

Sequence: TAGAATACATGGACCGGTTTTCCCGGTAATCCGTATTTGCA (site TAGAATCCTTG)
- recombinant UMI read abundance (log10): 0

Sequence: TAGAATACATGGACCGGTTTTCCCGGTAATCCGTATTTGCA (site TAGAATGCTTG)
- recombinant UMI read abundance (log10): 0

Sequence: TAGAATACATGGACCGGTTTTCCCGGTAATCCGTATTTGCA (site TAGAATTCTTG)
- recombinant UMI read abundance (log10): 0

Sequence: TAGAATACATGGACCGGTTTTCCCGGTAATCCGTATTTGCA (site TAGACTACTTG)
- recombinant UMI read abundance (log10): 0.486

Sequence: TAGAATACATGGACCGGTTTTCCCGGTAATCCGTATTTGCA (site TAGAGTACTTG)
- recombinant UMI read abundance (log10): 0.446

Sequence: TAGAATACATGGACCGGTTTTCCCGGTAATCCGTATTTGCA (site TAGATTACTTG)
- recombinant UMI read abundance (log10): 0.00714

Sequence: TAGAATACATGGACCGGTTTTCCCGGTAATCCGTATTTGCA (site TAGCATACTTG)
- recombinant UMI read abundance (log10): 0.783

Sequence: TAGAATACATGGACCGGTTTTCCCGGTAATCCGTATTTGCA (site TAGGATACTTG)
- recombinant UMI read abundance (log10): 1.71

Sequence: TAGAATACATGGACCGGTTTTCCCGGTAATCCGTATTTGCA (site TAGTATACTTG)
- recombinant UMI read abundance (log10): 1.34

Sequence: TAGAATACATGGACCGGTTTTCCCGGTAATCCGTATTTGCA (site TATAATACTTG)
- recombinant UMI read abundance (log10): 0.633

Sequence: TAGAATACATGGACCGGTTTTCCCGGTAATCCGTATTTGCA (site TCGAATACTTG)
- recombinant UMI read abundance (log10): 0.00888

Sequence: TAGAATACATGGACCGGTTTTCCCGGTAATCCGTATTTGCA (site TGGAATACTTG)
- recombinant UMI read abundance (log10): 0

Sequence: TAGAATACATGGACCGGTTTTCCCGGTAATCCGTATTTGCA (site TTGAATACTTG)
- recombinant UMI read abundance (log10): 0.27

Sequence: TAGACTTCATGGACCGGTTTTCCCGGTAATCCGTATTTGGT (site TAGACTTCTAC)
- recombinant UMI read abundance (log10): 1.64

Sequence: TAGACTTCATGGACCGGTTTTCCCGGTAATCCGTATTTGGT (site TAGCCTTCTAC)
- recombinant UMI read abundance (log10): 0.0272

Sequence: TAGACTTCATGGACCGGTTTTCCCGGTAATCCGTATTTGGT (site TAGGCTTCTAC)
- recombinant UMI read abundance (log10): 0.329

Sequence: TAGACTTCATGGACCGGTTTTCCCGGTAATCCGTATTTGGT (site TAGTCTTCTAC)
- recombinant UMI read abundance (log10): 0.175

Sequence: TAGAGAACATGGACCGGTTTTCCCGGTAATCCGTATTTGAG (site TAGAGAACTCT)
- recombinant UMI read abundance (log10): 1.87

Sequence: TAGAGCCCATGGACCGGTTTTCCCGGTAATCCGTATTTGCG (site TAGAGCCCTCG)
- recombinant UMI read abundance (log10): 0.457

Sequence: TAGAGTCCATGGACCGGTTTTCCCGGTAATCCGTATTTGTA (site TAAAGTCCTTA)
- recombinant UMI read abundance (log10): 0.546

Sequence: TAGAGTCCATGGACCGGTTTTCCCGGTAATCCGTATTTGTA (site TACAGTCCTTA)
- recombinant UMI read abundance (log10): 0.159

Sequence: TAGAGTCCATGGACCGGTTTTCCCGGTAATCCGTATTTGTA (site TAGAGTCCTTA)
- recombinant UMI read abundance (log10): 1.37

Sequence: TAGAGTCCATGGACCGGTTTTCCCGGTAATCCGTATTTGTA (site TATAGTCCTTA)
- recombinant UMI read abundance (log10): 0.132

Sequence: TAGATGACATGGACCGGTTTTCCCGGTAATCCGTATTTGCT (site TAGATGACTAG)
- recombinant UMI read abundance (log10): 2.49

Sequence: TAGATTACATGGACCGGTTTTCCCGGTAATCCGTATTTGCA (site TAGAATACTTG)
- recombinant UMI read abundance (log10): 0.304

Sequence: TAGATTACATGGACCGGTTTTCCCGGTAATCCGTATTTGCA (site TAGACTACTTG)
- recombinant UMI read abundance (log10): 0.98

Sequence: TAGATTACATGGACCGGTTTTCCCGGTAATCCGTATTTGCA (site TAGAGTACTTG)
- recombinant UMI read abundance (log10): 0.616

Sequence: TAGATTACATGGACCGGTTTTCCCGGTAATCCGTATTTGCA (site TAGATTACTTG)
- recombinant UMI read abundance (log10): 1.52
